This note sets out measurements from BindingDB's records for doi:10.7270/Q2PC30Z9 (Burnham Center For Chemical Genomics, 2012).

pIC50: −log10 of the molar value.

The target in the assay is 26S proteasome non-ATPase regulatory subunit 14 (Homo sapiens, UniProt O00487). In words: inhibition of proteasome subunit RPN11 – biochemical, fluorescence polarization, uHTS hits, confirmation (AID 602368). (Polarisation of emitted light reports the rotation of a fluorescent probe.)
Chain of 26S proteasome non-ATPase regulatory subunit 14 (O00487 whole entry): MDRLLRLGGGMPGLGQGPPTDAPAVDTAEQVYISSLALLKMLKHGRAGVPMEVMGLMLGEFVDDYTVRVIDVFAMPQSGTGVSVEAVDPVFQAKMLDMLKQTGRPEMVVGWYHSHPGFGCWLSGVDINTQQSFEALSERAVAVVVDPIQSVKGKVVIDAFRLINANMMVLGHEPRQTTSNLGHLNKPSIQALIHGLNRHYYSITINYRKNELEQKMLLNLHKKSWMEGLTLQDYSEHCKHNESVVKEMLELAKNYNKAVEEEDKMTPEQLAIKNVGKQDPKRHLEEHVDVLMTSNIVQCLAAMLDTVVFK
`CSc1nsc(CC=Nc2ccc(C(=O)O)cc2)c1C#N` [4-({2-[4-cyano-3-(methylsulfanyl)-5-isothiazolyl]vinyl}amino)benzenecarboxylic acid] had a pIC50 of 4.61.

The molecule `CCCCCCCCCCCC1N=C(N)N=C(CCCO)C1C(=O)OC` (stereo not given) [SMR001565729] gave a pIC50 of 4.70. Next, `C=c1[nH]n(-c2nnc(C)c(=O)[nH]2)c(=O)c1=Cc1ccc(N(CC)CC)cc1` [3-{4-[1-(4-Diethylamino-phenyl)-meth-(Z)-ylidene]-3-methyl-5-oxo-4,5-dihydro-pyrazol-1-yl}-6-methyl-4H -[1,2,4]triazin-5-one]: 4.31; `C=C(C=C(C)c1sc(S)nc1O)c1sc(S)nc1O` [MLS000723803]: 4.36. Next, `COc1cc(C=CC(=O)C2C(=O)NC(=O)N(CCc3ccccc3)C2=O)ccc1O` (stereo not given) [SMR000221203]: 4.53.

Regarding `CCOC(=O)C1C(=O)C(=Cc2ccc(-c3ccccc3C(=O)O)o2)SC1=Nc1ccc(OC)cc1` (stereo not given), the pIC50 is 4.75. Molecule `O=[N+]([O-])c1ccc(N=NCc2c[nH]c3ccccc23)cc1` [MLS000573812] gave a pIC50 of 5.75. In the case of `O=C(N/N=C/C1C=C([N+](=O)[O-])C=CC1=O)c1cc(-c2ccccc2)nc2ccccc12` (stereo not given) [N'-[(E)-(3-nitro-6-oxo-1-cyclohexa-2,4-dienylidene)methyl]-2-phenyl-4-quinolinecarbohydrazide] it was 4.83. On to `Cc1[nH]n(-c2ccccc2)c(=O)c1C=C1NC(=S)NC1=O` [5-methyl-4-[(Z)-(5-oxo-2-sulfanylideneimidazolidin-4-ylidene)methyl]-2-phenyl-4H-pyrazol-3-one], for which the pIC50 was 4.49. The molecule `O=c1c(Cl)c(N=NCc2ccc(Br)cc2)cnn1-c1ccccc1` gave a pIC50 of 4.67. In the case of `COC1=CC([N+](=O)[O-])=CC(/C=N/NC(=O)c2cncc(Br)c2)C1=O` (stereo not given) [5-bromo-N'-[(E)-(5-methoxy-3-nitro-6-oxo-1-cyclohexa-2,4-dienylidene)methyl]-3-pyridinecarbohydrazide] it was 4.31; in that of `O=C1c2ccccc2SC1/C=N/c1cc([N+](=O)[O-])ccc1O` (stereo not given) [(2Z)-2-[[(5-nitro-2-oxidanyl-phenyl)amino]methylidene]-1-benzothiophen-3-one], 5.48. In the case of `O=[N+]([O-])c1ccc(N=NCc2cccn2-c2ccccc2)nc1` [SMR000161089] it was 4.63; in that of `O=[N+]([O-])c1ccc(N=NCc2ccc[nH]2)cc1` [MLS000595102], 5.05.

Molecule `CC[n+]1c(CC=Nc2ccccc2)oc2ccc(OC)cc21` showed a pIC50 of 4.63. Against the preceding molecule, the pIC50 is 0.42 log units lower. In turn, `CN(CCO)c1ccc(CN=Nc2ccc([N+](=O)[O-])cc2S(=O)(=O)Nc2ccccc2C(=O)O)cc1` showed a pIC50 of 4.43. Next, `COc1cc(C=c2[nH]c3n(c2=O)CCCCC=3)ccc1O` [SMR000149996]: 4.83; `O=C(N/N=C/C1C=C(Cl)C=C([N+](=O)[O-])C1=O)c1ccccc1NS(=O)(=O)c1cccs1` (stereo not given) [SMR000364876]: 4.98; `CCN(CC)CCOC(=O)c1ccc(N=CC(C#N)c2nc(-c3ccc(OC)c(OC)c3)cs2)cc1` (stereo not given) [SMR000434079]: 4.63. Regarding `COC1=CC([N+](=O)[O-])=CC(/C=N/NC(=O)c2cc(-c3ccccc3)nc3ccccc23)C1=O` (stereo not given), the pIC50 is 4.65. Next, `CCN(CC)CCOC(=O)c1ccc(N=CC(C#N)c2nc(-c3ccc4c(c3)OCO4)cs2)cc1` (stereo not given) [2-(diethylamino)ethyl 4-[[(Z)-2-[4-(1,3-benzodioxol-5-yl)-1,3-thiazol-2-yl]-2-cyano-ethenyl]amino]benzoate]: 4.50; `CC(=O)C1C(=O)OC(=CC=Cc2ccccc2)C1=O` (stereo not given) [3-acetyl-5-cinnamylidene-4-hydroxy-2-furanone]: 4.45; `COc1cc2c3c(c1)C(C)=CC(C)(C)N3C(=O)C2=O` [MLS000688351]: 5.08. Next, `O=C1N=C(Nc2ccc(Cl)cc2Cl)SC1=Cc1c[nH]c2ccccc12`: 4.44; `Cc1cc(=O)[nH]c(N=NCc2c(O)n(-c3ccccc3)c(=O)c3ccccc23)n1` [SMR000221270]: 4.74. In the case of `CC1(C)CC(=O)C(=CNCC2CCN(C(=O)Cc3ccccc3)CC2)C(=O)C1` [5,5-dimethyl-2-[[[1-(2-phenylacetyl)piperidin-4-yl]methylamino]methylidene]cyclohexane-1,3-dione] it was less than 4.00; in that of `C=c1[nH]c2ccc(C)cc2c1=Cc1c(N)n2oc(C)cc2nc1=O` [MLS000730959], 4.48; in that of `COC1=CC(=Cc2c(C)[nH]n(-c3cccc(Br)c3)c2=O)C=C(OC)C1=O`, 4.64. `CC1=NC(=O)NC(c2ccc(N3CCOCC3)cc2)C1C(=O)c1ccccc1` (stereo not given) [5-benzoyl-6-methyl-4-[4-(4-morpholinyl)phenyl]-3,4-dihydro-1H-pyrimidin-2-one] showed a pIC50 of 4.77. In the case of `C=CCN1C(=O)C(/C=N/c2cccc([N+](=O)[O-])c2)C(=O)N(CCCC)C1=O` (stereo not given) [MLS000543529] it was 4.47; in that of `NS(=O)(=O)c1ccc(N=CCC(=O)c2ccc3ccccc3c2)cc1` [4-(3-Naphthalen-2-yl-3-oxo-propenylamino)-benzenesulfonamide], 4.54. In the case of `O=C1C=CC([N+](=O)[O-])=CC1C=NN=C1NS(=O)(=O)c2ccccc21` (stereo not given) it was 4.46; in that of `CC(c1sc(S)nc1O)c1sc(S)nc1O` [5-[1-(4-oxidanylidene-2-sulfanylidene-1,3-thiazolidin-5-yl)ethyl]-2-sulfanylidene-1,3-thiazolidin-4-one], 4.34; in that of `Oc1csc(=S)n1N=Cc1ccc(Cl)s1` [3-[(5-chlorothiophen-2-yl)methylideneamino]-2-sulfanylidene-1,3-thiazolidin-4-one], 4.23. Next, `Cc1[nH]c2ccccc2c1/C=C1\N=C(c2ccccc2)OC1=O` [(4Z)-4-[(2-methyl-1H-indol-3-yl)methylidene]-2-phenyl-5-oxazolone]: 5.38.

As usually defined, the pIC50 is −log10 of the IC50, conventionally taken in molar units.
